Patent US20060058286A1, “Methods of treating HIV infection” (priority 2004, published 2006)

Columns and labels:
HIV-1 NL4-3 [1] = assay: microbe, parasite or virus in culture; conditions: Human immunodeficiency virus 1, NL43, MT2, 120 h
HIV-1 NL4-3 [2] = assay: Two-drug combination study with Compound 1 (combination indices); format: cell-based; conditions: for Combination Indices at 50% HIV Inhibition (Confidence Interval) / Combination Indices at 75% HIV Inhibition (Confidence Interval) / Combination Indices at 90% HIV Inhibition (Confidence Interval): 95% CI in parentheses; for Overall Result: overall antiviral effect of the two-drug combination with Compound 1, all ratios and effective levels
[3] = combination with Compound 1, EC50 ratio 1:1 (Compound 1:comparator)
[4] = combination with Compound 1, EC50 ratio 1:2.5 (Compound 1:comparator)
[5] = combination with Compound 1, EC50 ratio 2.5:1 (Compound 1:comparator)

Structure (SMILES)	EC50 (HIV-1 NL4-3 [1])	Combination Indices at 50% HIV Inhibition (Confidence Interval) (HIV-1 NL4-3 [2]; [3])	Combination Indices at 75% HIV Inhibition (Confidence Interval) (HIV-1 NL4-3 [2]; [3])	Combination Indices at 90% HIV Inhibition (Confidence Interval) (HIV-1 NL4-3 [2]; [3])	Combination Indices at 50% HIV Inhibition (Confidence Interval) (HIV-1 NL4-3 [2]; [4])	Combination Indices at 75% HIV Inhibition (Confidence Interval) (HIV-1 NL4-3 [2]; [4])	Combination Indices at 90% HIV Inhibition (Confidence Interval) (HIV-1 NL4-3 [2]; [4])	Combination Indices at 50% HIV Inhibition (Confidence Interval) (HIV-1 NL4-3 [2]; [5])	Combination Indices at 75% HIV Inhibition (Confidence Interval) (HIV-1 NL4-3 [2]; [5])	Combination Indices at 90% HIV Inhibition (Confidence Interval) (HIV-1 NL4-3 [2]; [5])	Overall Result (HIV-1 NL4-3 [2])	Overall Result (HIV-1 NL4-3 [2]; listed as efavirenz)	Overall Result (HIV-1 NL4-3 [2]; listed as nevirapine)
O=C1Nc2ccc(Cl)cc2[C@@](C#CC2CC2)(C(F)(F)F)O1 [Efavirenz, efavirenz]	0.0015 µM	0.57 (0.44, 0.70)	0.56 (0.38, 0.74)	0.56 (0.28, 0.84)	0.49 (0.36, 0.62)	0.54 (0.34, 0.75)	0.61 (0.26, 0.97)	0.60 (0.45, 0.74)	0.51 (0.33, 0.68)	0.43 (0.20, 0.67)	Synergistic	strong synergistic effects	
Cc1ccnc2c1NC(=O)c1cccnc1N2C1CC1 [Nevirapine, nevirapine]	0.085 µM	0.51 (0.39, 0.63)	0.30 (0.20, 0.40)	0.18 (0.08, 0.27)	0.63 (0.42, 0.83)	0.40 (0.22, 0.59)	0.26 (0.07, 0.46)	0.52 (0.39, 0.64)	0.32 (0.22, 0.43)	0.21 (0.10, 0.31)	Synergistic		strong synergistic effects
